The values below are quoted from earlier work in patent publication US20220047530A1, “USE OF HORDENINE IN PREPARING DRUG FOR TREATING HYPOPHYSOMA” (Wuhan Third Hospital, priority 2019, published 2022).

For this data set, the system named is pituitary prolactinoma. Particulars: patients; cited from earlier work.

Consider `CC(C)C[C@H]1C(=O)N2CCC[C@H]2[C@]2(O)O[C@](NC(=O)[C@@H]3C=C4c5cccc6[nH]c(Br)c(c56)C[C@H]4N(C)C3)(C(C)C)C(=O)N12` [bromocriptine], for which the side effects entry was “mainly gastrointestinal reactions”.
